Measured values as given in article PMC12446476 (Nature Communications, 2025).
Converted amounts (≈) assume the structure as drawn. Where two headings read alike, the source gives them in different places.

System: N. gonorrhoeae
Assay: MIC determination, Etest
Assay type: cell-based, Neisseria gonorrhoeae
Details: Neisseria gonorrhoeae, comparator antibiotics, read-out: Minimum inhibitory concentration
Source text: The 2024 WHO N. gonorrhoeae reference strains were used for quality control. Only whole MIC doubling dilutions are reported. Clinical breakpoints or the epidemiological cutoff (ECOFF, to indicate azithromycin resistance) from EUCAST (v14.0, https://www.eucast.org/clinical_breakpoints) were used to classify isolates as antimicrobial susceptible or resistant. […] Two times the standard inoculum defined by CLSI was used to establish consistent growth in untreated control samples for some strains. In vitro time-kill assays were performed according to CLSI guidelines[65] using Columbia Broth (BD Difco) supplemented with 1% IsoVitaleX Enrichment (BD). Viable bacterial counts were generated by plating 10-fold serially diluted samples on GC agar plates containing 1% IsoVitaleX Enrichment (BD).

## CO/N=C(\C(=O)N[C@@H]1C(=O)N2C(C(=O)O)=C(CSc3nc(=O)c(=O)[nH]n3C)CS[C@H]12)c1csc(N)n1 [Ceftriaxone, reference compound]
Clinical N. gonorrhoeae isolate 1, Sweden 2023
  MIC: 4 ng/mL (≈ 7.21 nM)
Clinical N. gonorrhoeae isolate 2, Sweden 2023
  MIC: 32 ng/mL (≈ 57.7 nM)
Clinical N. gonorrhoeae isolate 3, Sweden 2023
  MIC: 4 ng/mL (≈ 7.21 nM)
Clinical N. gonorrhoeae isolate 4, Sweden 2023
  MIC: 32 ng/mL (≈ 57.7 nM)
Clinical N. gonorrhoeae isolate 5, Sweden 2023
  MIC: 4 ng/mL (≈ 7.21 nM)
Clinical N. gonorrhoeae isolate 6, Sweden 2023
  MIC: < 2 ng/mL
Clinical N. gonorrhoeae isolate 7, Sweden 2023
  MIC: 8 ng/mL (≈ 14.4 nM)
Clinical N. gonorrhoeae isolate 8, Sweden 2023
  MIC: 4 ng/mL (≈ 7.21 nM)
Clinical N. gonorrhoeae isolate 9, Sweden 2023
  MIC: 4 ng/mL (≈ 7.21 nM)
Clinical N. gonorrhoeae isolate 10, Sweden 2023
  MIC: < 2 ng/mL
Clinical N. gonorrhoeae isolate 11, Sweden 2023
  MIC: 64 ng/mL (≈ 115 nM)
Clinical N. gonorrhoeae isolate 12, Sweden 2023
  MIC: 8 ng/mL (≈ 14.4 nM)
Clinical N. gonorrhoeae isolate 13, Sweden 2023
  MIC: < 2 ng/mL
Clinical N. gonorrhoeae isolate 14, Sweden 2023
  MIC: 4 ng/mL (≈ 7.21 nM)
Clinical N. gonorrhoeae isolate 15, Sweden 2023
  MIC: 4 ng/mL (≈ 7.21 nM)
Clinical N. gonorrhoeae isolate 16, Sweden 2023
  MIC: 32 ng/mL (≈ 57.7 nM)
Clinical N. gonorrhoeae isolate 17, Sweden 2023
  MIC: 4 ng/mL (≈ 7.21 nM)
Clinical N. gonorrhoeae isolate 18, Sweden 2023
  MIC: 4 ng/mL (≈ 7.21 nM)
Clinical N. gonorrhoeae isolate 19, Sweden 2023
  MIC: 16 ng/mL (≈ 28.9 nM)
Clinical N. gonorrhoeae isolate 20, Sweden 2023
  MIC: 2 ng/mL (≈ 3.61 nM)
Clinical N. gonorrhoeae isolate 21, Sweden 2023
  MIC: 2 ng/mL (≈ 3.61 nM)
Clinical N. gonorrhoeae isolate 22, Sweden 2023
  MIC: 2 ng/mL (≈ 3.61 nM)
Clinical N. gonorrhoeae isolate 23, Sweden 2023
  MIC: < 2 ng/mL
Clinical N. gonorrhoeae isolate 24, Sweden 2023
  MIC: 2 ng/mL (≈ 3.61 nM)
Clinical N. gonorrhoeae isolate 25, Sweden 2023
  MIC: 4 ng/mL (≈ 7.21 nM)
Clinical N. gonorrhoeae isolate 26, Sweden 2023
  MIC: 4 ng/mL (≈ 7.21 nM)
Clinical N. gonorrhoeae isolate 27, Sweden 2023
  MIC: 4 ng/mL (≈ 7.21 nM)
Clinical N. gonorrhoeae isolate 28, Sweden 2023
  MIC: 8 ng/mL (≈ 14.4 nM)
Clinical N. gonorrhoeae isolate 29, Sweden 2023
  MIC: 4 ng/mL (≈ 7.21 nM)
Clinical N. gonorrhoeae isolate 30, Sweden 2023
  MIC: < 2 ng/mL
Clinical N. gonorrhoeae isolate 31, Sweden 2023
  MIC: 4 ng/mL (≈ 7.21 nM)
Clinical N. gonorrhoeae isolate 32, Sweden 2023
  MIC: 2 ng/mL (≈ 3.61 nM)
Clinical N. gonorrhoeae isolate 33, Sweden 2023
  MIC: 2 ng/mL (≈ 3.61 nM)
Clinical N. gonorrhoeae isolate 34, Sweden 2023
  MIC: 4 ng/mL (≈ 7.21 nM)
Clinical N. gonorrhoeae isolate 35, Sweden 2023
  MIC: 64 ng/mL (≈ 115 nM)
Clinical N. gonorrhoeae isolate 36, Sweden 2023
  MIC: 8 ng/mL (≈ 14.4 nM)
Clinical N. gonorrhoeae isolate 37, Sweden 2023
  MIC: 16 ng/mL (≈ 28.9 nM)
Clinical N. gonorrhoeae isolate 38, Sweden 2023
  MIC: 4 ng/mL (≈ 7.21 nM)
Clinical N. gonorrhoeae isolate 39, Sweden 2023
  MIC: 4 ng/mL (≈ 7.21 nM)
Clinical N. gonorrhoeae isolate 40, Sweden 2023
  MIC: 8 ng/mL (≈ 14.4 nM)
Clinical N. gonorrhoeae isolate 41, Sweden 2023
  MIC: 32 ng/mL (≈ 57.7 nM)
Clinical N. gonorrhoeae isolate 42, Sweden 2023
  MIC: < 2 ng/mL
Clinical N. gonorrhoeae isolate 43, Sweden 2023
  MIC: 4 ng/mL (≈ 7.21 nM)
Clinical N. gonorrhoeae isolate 44, Sweden 2023
  MIC: 64 ng/mL (≈ 115 nM)
Clinical N. gonorrhoeae isolate 45, Sweden 2023
  MIC: 2 ng/mL (≈ 3.61 nM)
Clinical N. gonorrhoeae isolate 46, Sweden 2023
  MIC: 16 ng/mL (≈ 28.9 nM)
Clinical N. gonorrhoeae isolate 47, Sweden 2023
  MIC: 8 ng/mL (≈ 14.4 nM)
Clinical N. gonorrhoeae isolate 48, Sweden 2023
  MIC: 4 ng/mL (≈ 7.21 nM)
Clinical N. gonorrhoeae isolate 49, Sweden 2023
  MIC: 4 ng/mL (≈ 7.21 nM)
Clinical N. gonorrhoeae isolate 50, Sweden 2023
  MIC: 4 ng/mL (≈ 7.21 nM)
Clinical N. gonorrhoeae isolate 51, Sweden 2023
  MIC: 2 ng/mL (≈ 3.61 nM)
Clinical N. gonorrhoeae isolate 52, Sweden 2023
  MIC: 2 ng/mL (≈ 3.61 nM)
Clinical N. gonorrhoeae isolate 53, Sweden 2023
  MIC: 2 ng/mL (≈ 3.61 nM)
Clinical N. gonorrhoeae isolate 54, Sweden 2023
  MIC: 4 ng/mL (≈ 7.21 nM)
Clinical N. gonorrhoeae isolate 55, Sweden 2023
  MIC: 4 ng/mL (≈ 7.21 nM)
Clinical N. gonorrhoeae isolate 56, Sweden 2023
  MIC: 32 ng/mL (≈ 57.7 nM)
Clinical N. gonorrhoeae isolate 57, Sweden 2023
  MIC: 16 ng/mL (≈ 28.9 nM)
Clinical N. gonorrhoeae isolate 58, Sweden 2023
  MIC: 2 ng/mL (≈ 3.61 nM)
Clinical N. gonorrhoeae isolate 59, Sweden 2023
  MIC: 16 ng/mL (≈ 28.9 nM)
Clinical N. gonorrhoeae isolate 60, Sweden 2023
  MIC: 2 ng/mL (≈ 3.61 nM)
Clinical N. gonorrhoeae isolate 61, Sweden 2023
  MIC: < 2 ng/mL
Clinical N. gonorrhoeae isolate 62, Sweden 2023
  MIC: < 2 ng/mL
Clinical N. gonorrhoeae isolate 63, Sweden 2023
  MIC: < 2 ng/mL
Clinical N. gonorrhoeae isolate 64, Sweden 2023
  MIC: 16 ng/mL (≈ 28.9 nM)
Clinical N. gonorrhoeae isolate 65, Sweden 2023
  MIC: < 2 ng/mL
Clinical N. gonorrhoeae isolate 66, Sweden 2023
  MIC: 32 ng/mL (≈ 57.7 nM)
Clinical N. gonorrhoeae isolate 67, Sweden 2023
  MIC: 16 ng/mL (≈ 28.9 nM)
Clinical N. gonorrhoeae isolate 68, Sweden 2023
  MIC: 4 ng/mL (≈ 7.21 nM)
Clinical N. gonorrhoeae isolate 69, Sweden 2023
  MIC: 4 ng/mL (≈ 7.21 nM)
Clinical N. gonorrhoeae isolate 70, Sweden 2023
  MIC: < 2 ng/mL
Clinical N. gonorrhoeae isolate 71, Sweden 2023
  MIC: 32 ng/mL (≈ 57.7 nM)
Clinical N. gonorrhoeae isolate 72, Sweden 2023
  MIC: 32 ng/mL (≈ 57.7 nM)
Clinical N. gonorrhoeae isolate 73, Sweden 2023
  MIC: 16 ng/mL (≈ 28.9 nM)
Clinical N. gonorrhoeae isolate 74, Sweden 2023
  MIC: 32 ng/mL (≈ 57.7 nM)
Clinical N. gonorrhoeae isolate 75, Sweden 2023
  MIC: 32 ng/mL (≈ 57.7 nM)
Clinical N. gonorrhoeae isolate 76, Sweden 2023
  MIC: 4 ng/mL (≈ 7.21 nM)
Clinical N. gonorrhoeae isolate 77, Sweden 2023
  MIC: 2 ng/mL (≈ 3.61 nM)
Clinical N. gonorrhoeae isolate 78, Sweden 2023
  MIC: 16 ng/mL (≈ 28.9 nM)
Clinical N. gonorrhoeae isolate 79, Sweden 2023
  MIC: < 2 ng/mL
Clinical N. gonorrhoeae isolate 80, Sweden 2023
  MIC: 8 ng/mL (≈ 14.4 nM)
Clinical N. gonorrhoeae isolate 81, Sweden 2023
  MIC: 4 ng/mL (≈ 7.21 nM)
Clinical N. gonorrhoeae isolate 82, Sweden 2023
  MIC: 16 ng/mL (≈ 28.9 nM)
Clinical N. gonorrhoeae isolate 83, Sweden 2023
  MIC: 4 ng/mL (≈ 7.21 nM)
Clinical N. gonorrhoeae isolate 84, Sweden 2023
  MIC: 64 ng/mL (≈ 115 nM)
Clinical N. gonorrhoeae isolate 85, Sweden 2023
  MIC: 4 ng/mL (≈ 7.21 nM)
Clinical N. gonorrhoeae isolate 86, Sweden 2023
  MIC: 8 ng/mL (≈ 14.4 nM)
Clinical N. gonorrhoeae isolate 87, Sweden 2023
  MIC: 2 ng/mL (≈ 3.61 nM)
Clinical N. gonorrhoeae isolate 88, Sweden 2023
  MIC: 64 ng/mL (≈ 115 nM)
Clinical N. gonorrhoeae isolate 89, Sweden 2023
  MIC: 4 ng/mL (≈ 7.21 nM)
Clinical N. gonorrhoeae isolate 90, Sweden 2023
  MIC: 2 ng/mL (≈ 3.61 nM)
Clinical N. gonorrhoeae isolate 91, Sweden 2023
  MIC: 4 ng/mL (≈ 7.21 nM)
Clinical N. gonorrhoeae isolate 92, Sweden 2023
  MIC: 4 ng/mL (≈ 7.21 nM)
Clinical N. gonorrhoeae isolate 93, Sweden 2023
  MIC: 4 ng/mL (≈ 7.21 nM)
Clinical N. gonorrhoeae isolate 94, Sweden 2023
  MIC: 2 ng/mL (≈ 3.61 nM)
Clinical N. gonorrhoeae isolate 95, Sweden 2023
  MIC: < 2 ng/mL
Clinical N. gonorrhoeae isolate 96, Sweden 2023
  MIC: 2 ng/mL (≈ 3.61 nM)
Clinical N. gonorrhoeae isolate 97, Sweden 2023
  MIC: < 2 ng/mL
Clinical N. gonorrhoeae isolate 98, Sweden 2023
  MIC: 2 ng/mL (≈ 3.61 nM)
Clinical N. gonorrhoeae isolate 99, Sweden 2023
  MIC: 4 ng/mL (≈ 7.21 nM)
Clinical N. gonorrhoeae isolate 100, Sweden 2023
  MIC: 4 ng/mL (≈ 7.21 nM)
